# From PubChem BioAssay AID248 (DTP/NCI, 2004)
# Values joined by “and” are separate entries in the source; they are usually repeats but may differ in a detail not shown here. Equal entries are not always repeated. Inconclusive results and toxic doses are left out.
# System: L1210 leukemia ip in BDF1 mice, survival T/C
# Test: NCI In Vivo Anticancer Drug Screen. Data for tumor model L1210 Leukemia (intraperitoneal) in B6D2F1 (BDF1) mice
# Details: endpoint: mean survival time, higher = longer survival
# Outline: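 Ratio derived from survival: compound-dosed mice over vehicle-dosed mice, all bearing a transplantable tumor.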
# [1] = dose: 100.0 mg/kg/injection, schedule: Q01DX001 (ip), vehicle: saline with Tween-80
# [2] = dose: 200.0 mg/kg/injection, schedule: Q01DX001 (ip), vehicle: saline with Tween-80
# [3] = dose: 400.0 mg/kg/injection, schedule: Q01DX001 (ip), vehicle: saline with Tween-80
# [4] = dose: 100.0 mg/kg/injection, schedule: Q04DX003 (ip), vehicle: saline with Tween-80
# [5] = dose: 200.0 mg/kg/injection, schedule: Q04DX003 (ip), vehicle: saline with Tween-80
# [6] = dose: 100.0 mg/kg/injection, schedule: Q01DX009 (ip), vehicle: Klucel (hydroxypropylcellulose) (HPC)
# [7] = dose: 200.0 mg/kg/injection, schedule: Q01DX009 (ip), vehicle: Klucel (hydroxypropylcellulose) (HPC)
# [8] = dose: 100.0 mg/kg/injection, schedule: Q04DX003 (ip), vehicle: Klucel (hydroxypropylcellulose) (HPC)
# [9] = dose: 200.0 mg/kg/injection, schedule: Q04DX003 (ip), vehicle: Klucel (hydroxypropylcellulose) (HPC)
# [10] = dose: 400.0 mg/kg/injection, schedule: Q01DX009 (ip), vehicle: Klucel (hydroxypropylcellulose) (HPC)
# [11] = dose: 400.0 mg/kg/injection, schedule: Q04DX003 (ip), vehicle: Klucel (hydroxypropylcellulose) (HPC)
smiles,measurement,setting,value
CCOC(=O)NC(S(=O)(=O)O)S(=O)(=O)O.[Tl],T/C,"dose: 25.0 mg/kg/injection, schedule: Q01DX001 (ip), vehicle: saline with Tween-80",102 % of control
Cc1ccc(C2=C(c3ccc(C)cc3)CS(=O)(=O)C2)cc1,T/C,[1],95 % of control
same,T/C,[2],168 % of control
same,T/C,[3],244 % of control
COC(=O)c1[nH]cnc1N1CC[N+](CCCl)=N1,T/C,"dose: 37.5 mg/kg/injection, schedule: Q01DX009 (ip), vehicle: saline",116 % of control
same,T/C,"dose: 37.5 mg/kg/injection, schedule: Q04DX003 (ip), vehicle: saline",100 % of control
same,T/C,"dose: 75.0 mg/kg/injection, schedule: Q01DX001 (ip), vehicle: saline",98 % of control
same,T/C,"dose: 75.0 mg/kg/injection, schedule: Q01DX009 (ip), vehicle: saline",95 % of control
same,T/C,"dose: 75.0 mg/kg/injection, schedule: Q04DX003 (ip), vehicle: saline",107 % of control
same,T/C,"dose: 150.0 mg/kg/injection, schedule: Q01DX001 (ip), vehicle: saline",100 % of control
same,T/C,"dose: 150.0 mg/kg/injection, schedule: Q01DX009 (ip), vehicle: saline",103 % of control
same,T/C,"dose: 150.0 mg/kg/injection, schedule: Q04DX003 (ip), vehicle: saline",102 % of control
COc1cc([N+](=O)[O-])c(C)cc1Nc1ccc(OC)c(OC)c1,T/C,"dose: 100.0 mg/kg/injection, schedule: Q01DX009 (ip), vehicle: saline with Tween-80",105 % of control
same,T/C,[4],98 % of control
same,T/C,"dose: 200.0 mg/kg/injection, schedule: Q01DX009 (ip), vehicle: saline with Tween-80",96 % of control
same,T/C,[5],93 % of control
same,T/C,"dose: 400.0 mg/kg/injection, schedule: Q01DX009 (ip), vehicle: saline with Tween-80",96 % of control
same,T/C,"dose: 400.0 mg/kg/injection, schedule: Q04DX003 (ip), vehicle: saline with Tween-80",92 % of control
CC1CCc2cc3c4ccccc4n(C)c3cc2C1 (stereo not drawn),T/C,"dose: 75.0 mg/kg/injection, schedule: Q01DX001 (ip), vehicle: carboxymethylcellulose (CMC)",107 % of control
same,T/C,"dose: 150.0 mg/kg/injection, schedule: Q01DX001 (ip), vehicle: carboxymethylcellulose (CMC)",109 % of control
same,T/C,"dose: 300.0 mg/kg/injection, schedule: Q01DX001 (ip), vehicle: carboxymethylcellulose (CMC)",109 % of control
O=C1c2ccccc2C(=O)c2c(NCCN3CCOCC3)ccc(NCCN3CCOCC3)c21,T/C,"dose: 87.5 mg/kg/injection, schedule: Q01DX009 (ip), vehicle: Klucel (hydroxypropylcellulose) (HPC)",96 % of control
same,T/C,"dose: 175.0 mg/kg/injection, schedule: Q01DX009 (ip), vehicle: Klucel (hydroxypropylcellulose) (HPC)",102 % of control
same,T/C,"dose: 350.0 mg/kg/injection, schedule: Q01DX009 (ip), vehicle: Klucel (hydroxypropylcellulose) (HPC)",107 % of control
CNc1c2c(nc3ccccc13)CCCC2,T/C,"dose: 1.25 mg/kg/injection, schedule: Q01DX009 (ip), vehicle: saline with Tween-80",93 % of control
same,T/C,"dose: 1.25 mg/kg/injection, schedule: Q04DX003 (ip), vehicle: saline with Tween-80",97 % of control
same,T/C,"dose: 2.5 mg/kg/injection, schedule: Q01DX009 (ip), vehicle: saline with Tween-80",91 % of control
same,T/C,"dose: 2.5 mg/kg/injection, schedule: Q04DX003 (ip), vehicle: saline with Tween-80",108 % of control
same,T/C,"dose: 5.0 mg/kg/injection, schedule: Q01DX009 (ip), vehicle: saline with Tween-80",89 % of control
same,T/C,"dose: 5.0 mg/kg/injection, schedule: Q04DX003 (ip), vehicle: saline with Tween-80",102 % of control
O=C(N/N=C/c1ccc(Cl)cc1)Nc1ccccc1,T/C,[6],90 % of control
same,T/C,[7],96 % of control
Cc1cc(O)cc(=O)o1,T/C,[6],97 % of control and 89 % of control
same,T/C,[8],101 % of control and 86 % of control
same,T/C,[7],95 % of control and 100 % of control
same,T/C,[9],101 % of control and 103 % of control
same,T/C,[10],94 % of control and 100 % of control
same,T/C,[11],92 % of control and 102 % of control
O=C1NCC2CCc3c(ccc4ccccc34)N12 (stereo not drawn),T/C,"dose: 100.0 mg/kg/injection, schedule: Q01DX001 (ip), vehicle: other",100 % of control
same,T/C,"dose: 200.0 mg/kg/injection, schedule: Q01DX001 (ip), vehicle: other",94 % of control
same,T/C,"dose: 400.0 mg/kg/injection, schedule: Q01DX001 (ip), vehicle: other",93 % of control
Clc1nc2cc(Cl)c(Cl)cc2[nH]1,T/C,"dose: 100.0 mg/kg/injection, schedule: Q04DX003 (ip), vehicle: acetone",95 % of control
same,T/C,"dose: 200.0 mg/kg/injection, schedule: Q04DX003 (ip), vehicle: acetone",95 % of control
O=C1c2ccccc2C(=O)C(Cl)C1Cl (stereo not drawn),T/C,"dose: 1.56 mg/kg/injection, schedule: Q04DX003 (ip), vehicle: other",97 % of control
same,T/C,"dose: 3.13 mg/kg/injection, schedule: Q04DX003 (ip), vehicle: other",92 % of control
same,T/C,"dose: 6.25 mg/kg/injection, schedule: Q04DX003 (ip), vehicle: other",96 % of control and 100 % of control
CC(=O)c1ccccc1OC(=S)N(C)C,T/C,[4],87 % of control
same,T/C,[5],95 % of control
c1ccc(-c2cccc3c2N=C2C3=Nc3c2cccc3-c2ccccc2)cc1,T/C,[8],96 % of control
same,T/C,[9],95 % of control
same,T/C,[11],93 % of control
Cc1c2oc3c(C)ccc(C(=O)NCCC(C)C)c3nc-2c(C(=O)NCCC(C)C)c(N)c1=O,T/C,"dose: 10.0 mg/kg/injection, schedule: Q01DX001 (ip), vehicle: carboxymethylcellulose (CMC)",93 % of control
CCCCCCCCCC(C)CCCCCC (stereo not drawn),T/C,"dose: 75.0 mg/kg/injection, schedule: Q01DX001 (ip), vehicle: saline with Tween-80",100 % of control
same,T/C,"dose: 150.0 mg/kg/injection, schedule: Q01DX001 (ip), vehicle: saline with Tween-80",116 % of control
same,T/C,"dose: 300.0 mg/kg/injection, schedule: Q01DX001 (ip), vehicle: saline with Tween-80",92 % of control
Cc1cc(NC(=O)CCc2ccc(N3C(N)=NC(N)=NC3(C)C)cc2)ccc1S(=O)(=O)F (tested in a mixture with another compound),T/C,"dose: 100.0 mg/kg/injection, schedule: Q01DX001 (ip), vehicle: Klucel (hydroxypropylcellulose) (HPC)",90 % of control
same,T/C,"dose: 200.0 mg/kg/injection, schedule: Q01DX001 (ip), vehicle: Klucel (hydroxypropylcellulose) (HPC)",90 % of control
same,T/C,"dose: 400.0 mg/kg/injection, schedule: Q01DX001 (ip), vehicle: Klucel (hydroxypropylcellulose) (HPC)",92 % of control
CCc1n[nH]c(=S)n1N,T/C,"dose: 12.5 mg/kg/injection, schedule: Q04DX003 (ip), vehicle: Klucel (hydroxypropylcellulose) (HPC)",94 % of control
same,T/C,"dose: 25.0 mg/kg/injection, schedule: Q04DX003 (ip), vehicle: Klucel (hydroxypropylcellulose) (HPC)",89 % of control
same,T/C,"dose: 50.0 mg/kg/injection, schedule: Q04DX003 (ip), vehicle: Klucel (hydroxypropylcellulose) (HPC)",96 % of control
CC(=O)c1ccc(Cl)cc1,T/C,"dose: 100.0 mg/kg/injection, schedule: Q01DX001 (ip), vehicle: carboxymethylcellulose (CMC)",91 % of control
same,T/C,"dose: 200.0 mg/kg/injection, schedule: Q01DX001 (ip), vehicle: carboxymethylcellulose (CMC)",91 % of control
same,T/C,"dose: 400.0 mg/kg/injection, schedule: Q01DX001 (ip), vehicle: carboxymethylcellulose (CMC)",97 % of control
Cc1ncc(C(N)=O)c(C)n1,T/C,"dose: 100.0 mg/kg/injection, schedule: Q01DX001 (ip), vehicle: saline",95 % of control
same,T/C,"dose: 200.0 mg/kg/injection, schedule: Q01DX001 (ip), vehicle: saline",101 % of control
same,T/C,"dose: 400.0 mg/kg/injection, schedule: Q01DX001 (ip), vehicle: saline",101 % of control
C(CCC1CCCC1)=C(CCCC1CCCC1)CCCC1CCCC1,T/C,[1],100 % of control
same,T/C,[2],94 % of control
same,T/C,[3],91 % of control
O=C1OI(Cl)c2ccccc21,T/C,"dose: 100.0 mg/kg/injection, schedule: Q04DX002 (ip), vehicle: Klucel (hydroxypropylcellulose) (HPC)",88 % of control
same,T/C,"dose: 200.0 mg/kg/injection, schedule: Q04DX002 (ip), vehicle: Klucel (hydroxypropylcellulose) (HPC)",120 % of control
C#CCOCC(O)CCl (stereo not drawn),T/C,"dose: 75.0 mg/kg/injection, schedule: Q01DX001 (ip), vehicle: acetone",101 % of control
same,T/C,"dose: 150.0 mg/kg/injection, schedule: Q01DX001 (ip), vehicle: acetone",92 % of control
same,T/C,"dose: 300.0 mg/kg/injection, schedule: Q01DX001 (ip), vehicle: acetone",89 % of control
NC(=S)SCCC(=O)O,T/C,[6],96 % of control
same,T/C,[7],100 % of control
same,T/C,[9],93 % of control
same,T/C,[10],94 % of control
same,T/C,[11],92 % of control
CC(C)C(C(=O)O)c1ccccc1 (stereo not drawn),T/C,"dose: 100.0 mg/kg/injection, schedule: Q04DX003 (ip), vehicle: saline",100 % of control
same,T/C,"dose: 200.0 mg/kg/injection, schedule: Q04DX003 (ip), vehicle: saline",112 % of control
same,T/C,"dose: 400.0 mg/kg/injection, schedule: Q04DX003 (ip), vehicle: saline",107 % of control
